In US8551999B2, “Heterocyclic compound and pharmaceutical composition thereof” (Otsuka Pharmaceutical Co., Ltd., priority 2007, dated 2013):

Row | melting point | Compound
1 | 264 to 265.6 °C | Br.Cn1c(C(=O)N2CCN(Cc3ccc4c(c3)OCO4)CC2)cc2ccc(Oc3ccc(NC(=O)c4ccc(C(F)(F)F)cc4)cn3)cc21 [Example 454, N-{6-[2-(4-Benzo[1,3]dioxol-5-ylmethylpiperazine-1-carbonyl)-1-methyl-1H-indol-6-yloxy]pyridin-3-yl}-4-trifluoromethylbenzamide hydrobromide]
2 | 227.4 to 229.2 °C | Br.CN(C(=O)c1ccc(OC(F)(F)F)cc1)c1ccc(Oc2ccc3cc(C(=O)N4CCN(Cc5ccc(OCC(F)(F)F)cc5)CC4)n(C)c3c2)nc1 [Example 456, N-Methyl-N-[6-(1-methyl-2-{4-[4-(2,2,2-trifluoroethoxy)benzyl]-piperazine-1-carbonyl}-1H-indol-6-yloxy)pyridin-3-yl]-4-tri-fluoromethoxybenzamide hydrobromide]
3 | 241.4 to 242.7 °C | Br.Cn1c(C(=O)N2CCN(Cc3ccc(O)cc3)CC2)cc2ccc(Oc3ccc(NC(=O)c4ccc(C(F)(F)F)cc4)cn3)cc21 [Example 459, N-(6-{2-[4-(4-Hydroxybenzyl)piperazine-1-carbonyl]-1-methyl-1H-indol-6-yloxy}pyridin-3-yl)-4-trifluoromethylbenzamide hydrobromide]
4 | 236.8 to 243.8 °C | Br.CC(C)Oc1ccc(CN2CCN(C(=O)c3cc4cc(Oc5ccc(NC(=O)c6ccc(C(F)(F)F)cc6)cn5)ccc4n3C)CC2)cc1 [Example 460, N-(6-{2-[4-(4-Isopropoxybenzyl)piperazine-1-carbonyl]-1-methyl-1H-indol-5-yloxy}pyridin-3-yl)-4-trifluoromethylbenzamide hydrobromide]
5 | 229.1 to 230.8 °C | Br.Cn1c(C(=O)N2CCN(Cc3ccc(OCC(F)F)cc3)CC2)cc2cc(Oc3ccc(NC(=O)c4ccc(C(F)(F)F)cc4)cn3)ccc21 [Example 462, N-[6-(2-{4-[4-(2,2-Difluoroethoxy)benzyl]piperazine-1-carbonyl}-1-methyl-1H-indol-5-yloxy)pyridin-3-yl]-4-trifluoromethyl-benzamide hydrobromide]
6 | 236.8 to 237.5 °C | Br.Cn1c(C(=O)N2CCN(Cc3ccc(OCC(F)(F)F)cc3)CC2)cc2cc(Oc3ccc(NC(=O)c4ccc(C(F)(F)F)cc4)cn3)ccc21 [Example 463, N-[6-(1-Methyl-2-{4-[4-(2,2,2-trifluoroethoxy)benzyl]piperazine-1-carbonyl}-1H-indol-5-yloxy)pyridin-3-yl]-4-trifluoromethyl-benzamide hydrobromide]
7 | 232.4 to 234.2 °C | Br.Cn1c(C(=O)N2CCN(Cc3ccc(OCCF)cc3)CC2)cc2ccc(Oc3ccc(NC(=O)c4ccc(Cl)c(Cl)c4)cn3)cc21 [Example 464, 3,4-Dichloro-N-[6-(2-{4-[4-(2-fluoroethoxy)benzyl]piperazine-1-carbonyl}-1-methyl-1H-indol-6-yloxy)pyridin-3-yl]benzamide hydrobromide]
8 | 251.8 to 253.5 °C | Br.Cn1c(C(=O)N2CCN(Cc3ccc(OCC(F)(F)F)cc3)CC2)cc2ccc(Oc3ccc(NC(=O)c4ccc(Cl)c(Cl)c4)cn3)cc21 [Example 465, 3,4-Dichloro-N-[6-(1-methyl-2-{4-[4-(2,2,2-trifluoroethoxy)-benzyl]piperazine-1-carbonyl}-1H-indol-6-yloxy)pyridin-3-yl]-benzamide hydrobromide]
9 | 236.9 to 240.4 °C | Br.CC(C)Oc1ccc(CN2CCN(C(=O)c3cc4ccc(Oc5ccc(NC(=O)c6ccc(Cl)c(Cl)c6)cn5)cc4n3C)CC2)cn1 [Example 466, 3,4-Dichloro-N-(6-{2-[4-(6-isopropoxypyridin-3-ylmethyl)-piperazine-1-carbonyl]-1-methyl-1H-indol-6-yloxy}pyridin-3-yl)-benzamide hydrobromide]
10 | 253 to 254.8 °C | Br.Cn1c(C(=O)N2CCN(Cc3ccc4c(c3)OC(F)(F)O4)CC2)cc2ccc(Oc3ccc(NC(=O)c4ccc(Cl)c(Cl)c4)cn3)cc21 [Example 467, 3,4-Dichloro-N-(6-{2-[4-(2,2-difluorobenzo[1,3]dioxol-5-yl-methyl)piperazine-1-carbonyl]-1-methyl-1H-indol-6-yloxy}pyridin-3-yl)benzamide hydrobromide]
11 | 242.8 to 243.9 °C | Br.Cn1c(C(=O)N2CCN(Cc3ccc(OC(CF)CF)cc3)CC2)cc2ccc(Oc3ccc(NC(=O)c4ccc(Cl)c(Cl)c4)cn3)cc21 [Example 470, 3,4-Dichloro-N-[6-(2-{4-[4-(2-fluoro-1-fluoromethylethoxy)-benzyl]piperazine-1-carbonyl}-1-methyl-1H-indol-6-yloxy)pyridin-3-yl]benzamide hydrobromide]
12 | 240 to 242 °C | Br.CCCOc1ccc(CN2CCN(C(=O)c3cc4ccc(Oc5ccc(N(C)C(=O)c6ccc(OC(F)(F)F)cc6)cn5)cc4n3C)CC2)cc1 [Example 471, N-Methyl-N-(6-{1-methyl-2-[4-(4-propoxybenzyl)piperazine-1-carbonyl]-1H-indol-6-yloxy}pyridin-3-yl)-4-trifluoromethoxy-benzamide hydrobromide]
13 | 237.2 to 238.5 °C | Br.CC(C)Oc1ccc(CN2CCN(C(=O)c3cc4ccc(Oc5ccc(N(C)C(=O)c6ccc(OC(F)(F)F)cc6)cn5)cc4n3C)CC2)cc1 [Example 472, N-(6-{2-[4-(4-Isopropoxybenzyl)piperazine-1-carbonyl]-1-methyl-1H-indol-6-yloxy}pyridin-3-yl)-N-methyl-4-trifluoromethoxy-benzamide hydrobromide]
14 | 269 to 270.3 °C | Br.Cn1c(C(=O)N2CCN(Cc3ccc(OCC(F)(F)F)cc3)CC2)cc2ccc(Oc3ccc(NC(=O)c4ccc(C(F)(F)F)cc4)cn3)cc21 [Example 474, N-[6-(1-Methyl-2-{4-[4-(2,2,2-trifluoroethoxy)benzyl]piperazine-1-carbonyl}-1H-indol-6-yloxy)pyridin-3-yl]-4-trifluoromethyl-benzamide hydrobromide]
15 | 254 to 255.7 °C | Br.CCCOc1ccc(CN2CCN(C(=O)c3cc4ccc(Oc5ccc(NC(=O)c6ccc(C(F)(F)F)cc6)cn5)cc4n3C)CC2)cc1 [Example 475, N-(6-{1-Methyl-2-[4-(4-propoxybenzyl)piperazine-1-carbonyl]-1H-indol-6-yloxy}pyridin-3-yl)-4-trifluoromethylbenzamide hydrobromide]
16 | 258.7 to 259.6 °C | Br.CC(C)Oc1ccc(CN2CCN(C(=O)c3cc4ccc(Oc5ccc(NC(=O)c6ccc(C(F)(F)F)cc6)cn5)cc4n3C)CC2)cc1 [Example 476, N-(6-{2-[4-(4-Isopropoxybenzyl)piperazine-1-carbonyl]-1-methyl-1H-indol-6-yloxy}pyridin-3-yl)-4-trifluoromethylbenzamide hydrobromide]
17 | 265.6 to 268.3 °C | Br.Cn1c(C(=O)N2CCN(Cc3ccc(OC(F)F)cc3)CC2)cc2ccc(Oc3ccc(NC(=O)c4ccc(C(F)(F)F)cc4)cn3)cc21 [Example 477, N-(6-{2-[4-(4-Difluoromethoxybenzyl)piperazine-1-carbonyl]-1-methyl-1H-indol-6-yloxy}pyridin-3-yl)-4-trifluoromethylbenzamide hydrobromide]
18 | 267 to 268.2 °C | Br.CCCc1ccc(CN2CCN(C(=O)c3cc4ccc(Oc5ccc(NC(=O)c6ccc(C(F)(F)F)cc6)cn5)cc4n3C)CC2)cc1 [Example 478, N-(6-{1-Methyl-2-[4-(4-propylbenzyl)piperazine-1-carbonyl]-1H-indol-6-yloxy}pyridin-3-yl)-4-trifluoromethylbenzamide hydrobromide]
19 | 260.7 to 261.2 °C | Br.Cn1c(C(=O)N2CCN(Cc3ccc(OCC(F)F)cc3)CC2)cc2ccc(Oc3ccc(NC(=O)c4ccc(C(F)(F)F)cc4)cn3)cc21 [Example 479, N-[6-(2-{4-[4-(2,2-Difluoroethoxy)benzyl]piperazine-1-carbonyl}-1-methyl-1H-indol-6-yloxy)pyridin-3-yl]-4-trifluoromethyl-benzamide hydrobromide]
20 | 234.7 to 235.1 °C | Br.CCCOc1ccc(CN2CCN(C(=O)c3cc4cc(Oc5ccc(NC(=O)c6ccc(C(F)(F)F)cc6)cn5)ccc4n3C)CC2)cc1 [Example 481, N-(6-{1-Methyl-2-[4-(4-propoxybenzyl)piperazine-1-carbonyl]-1H-indol-5-yloxy}pyridin-3-yl)-4-trifluoromethylbenzamide hydrobromide]
21 | 186.9 to 188.8 °C | Br.CN(C(=O)c1ccc(Cl)c(Cl)c1)c1ccc(Oc2ccc3cc(C(=O)N4CCN(Cc5ccc(OCCF)cc5)CC4)n(C)c3c2)nc1 [Example 482, 3,4-Dichloro-N-[6-(2-{4-[4-(2-fluoroethoxy)benzyl]piperazine-1-carbonyl}-1-methyl-1H-indol-6-yloxy)pyridin-3-yl]-N-methyl-benzamide hydrobromide]
22 | 182.4 to 184.6 °C | Br.CN(C(=O)c1ccc(Cl)c(Cl)c1)c1ccc(Oc2ccc3cc(C(=O)N4CCN(Cc5ccc(OCC(F)F)cc5)CC4)n(C)c3c2)nc1 [Example 483, 3,4-Dichloro-N-[6-(2-{4-[4-(2,2-difluoroethoxy)benzyl]piperazine-1-carbonyl}-1-methyl-1H-indol-6-yloxy)pyridin-3-yl]-N-methyl-benzamide hydrobromide]
23 | 197.1 to 201.5 °C | Br.CN(C(=O)c1ccc(Cl)c(Cl)c1)c1ccc(Oc2ccc3cc(C(=O)N4CCN(Cc5ccc(OCC(F)(F)F)cc5)CC4)n(C)c3c2)nc1 [Example 484, 3,4-Dichloro-N-methyl-N-[6-(1-methyl-2-{4-[4-(2,2,2-trifluoro-ethoxy)benzyl]piperazine-1-carbonyl}-1H-indol-6-yloxy)pyridin-3-yl]benzamide hydrobromide]
24 | 188.2 to 191.8 °C | Br.CN(C(=O)c1ccc(Cl)c(Cl)c1)c1ccc(Oc2ccc3cc(C(=O)N4CCN(Cc5ccc(OC(CF)CF)cc5)CC4)n(C)c3c2)nc1 [Example 485, 3,4-Dichloro-N-[6-(2-{4-[4-(2-fluoro-1-fluoromethylethoxy)-benzyl]piperazine-1-carbonyl}-1-methyl-1H-indol-6-yloxy)pyridin-3-yl]-N-methylbenzamide hydrobromide]
25 | 220.2 to 223.5 °C | Br.CC(C)Oc1ccc(CN2CCN(C(=O)c3cc4ccc(Oc5ccc(N(C)C(=O)c6ccc(Cl)c(Cl)c6)cn5)cc4n3C)CC2)cc1 [Example 486, 3,4-Dichloro-N-(6-{2-[4-(4-isopropoxybenzyl)piperazine-1-carbonyl]-1-methyl-1H-indol-6-yloxy}pyridin-3-yl)-N-methyl-benzamide hydrobromide]
